Measurements reported in publication PMC4057605 (Journal of immunology (Baltimore, Md. : 1950), 2013).

Tests used:
HLA-B*27:05 monochain [1] = tested on: HLA-B*27:05 monochain; set-up: species or system mouse (HLA-B*27:05 monochain transgenic, H-2 class I null); settings: mouse, in vivo, sc
HLA-B*27:05 monochain [2] = tested on: HLA-B*27:05 monochain; set-up: species or system mouse (HLA-B*27:05 monochain transgenic, H-2 class I null); settings: mouse, in vivo
HLA-B*44:02 monochain [3] = tested on: HLA-B*44:02 monochain; set-up: species or system mouse (HLA-B*44:02 monochain transgenic, H-2 class I null); settings: mouse, in vivo, sc
HLA-B*44:02 monochain [4] = tested on: HLA-B*44:02 monochain; set-up: species or system mouse (HLA-B*44:02 monochain transgenic, H-2 class I null); settings: mouse, in vivo
HLA-A*01:03 monochain [5] = settings: mouse, in vivo
HLA-A*01:03 monochain [6] = settings: mouse, in vivo, sc
HLA-B*08:01 monochain [7] = tested on: HLA-B*08:01 monochain; set-up: species or system mouse (HLA-B*08:01 monochain transgenic, H-2 class I null); settings: mouse, in vivo, sc
HLA-B*08:01 monochain [8] = tested on: HLA-B*08:01 monochain; set-up: species or system mouse (HLA-B*08:01 monochain transgenic, H-2 class I null); settings: mouse, in vivo

## SRYWAIRTR
HLA-B*27:05 monochain [1]
  CD8+ T cell IFN-γ responses after peptide immunization: 567/459/110/0 Spots/10^6 Cells
HLA-B*27:05 monochain [2]
  CD8+ T cell IFN-γ responses after DNA immunization: 917/890/411/241 Spots/10^6 Cells

## AENGWGFYF
HLA-B*44:02 monochain [3]
  CD8+ T cell IFN-γ responses after peptide immunization: 60/41/29/12/9 Spots/10^6 Cells
HLA-B*44:02 monochain [4]
  CD8+ T cell IFN-γ responses after DNA immunization: 91/63/46/0 Spots/10^6 Cells

## EADPTGHSY
HLA-A*01:03 monochain [5]
  CD8+ T cell IFN-γ responses after DNA immunization: 118/91/86/38 Spots/10^6 Cells
HLA-A*01:03 monochain [6]
  CD8+ T cell IFN-γ responses after peptide immunization: 287/212/123/27 Spots/10^6 Cells

## VSDGGPNLY
HLA-A*01:03 monochain [5]
  CD8+ T cell IFN-γ responses after DNA immunization: 265/169/105 Spots/10^6 Cells
HLA-A*01:03 monochain [6]
  CD8+ T cell IFN-γ responses after peptide immunization: 201/134/71/59 Spots/10^6 Cells

## FEDLRVLSF
HLA-B*44:02 monochain [3]
  CD8+ T cell IFN-γ responses after peptide immunization: 167/61/30/17/8 Spots/10^6 Cells
HLA-B*44:02 monochain [4]
  CD8+ T cell IFN-γ responses after DNA immunization: 66/44/0/0 Spots/10^6 Cells

## WLKIKRDYL
HLA-B*08:01 monochain [7]
  CD8+ T cell IFN-γ responses after peptide immunization: 524/103/97/74/64/0 Spots/10^6 Cells
HLA-B*08:01 monochain [8]
  CD8+ T cell IFN-γ responses after DNA immunization: 327/46/39/21/21/11 Spots/10^6 Cells

## EENLLDFVRF
HLA-B*44:02 monochain [3]
  CD8+ T cell IFN-γ responses after peptide immunization: 54/28/27/20/0 Spots/10^6 Cells
HLA-B*44:02 monochain [4]
  CD8+ T cell IFN-γ responses after DNA immunization: 134/87/0/0 Spots/10^6 Cells

## LRGKWQRRYR
HLA-B*27:05 monochain [1]
  CD8+ T cell IFN-γ responses after peptide immunization: 113/61/54/23 Spots/10^6 Cells
HLA-B*27:05 monochain [2]
  CD8+ T cell IFN-γ responses after DNA immunization: 221/213/189/13 Spots/10^6 Cells
